Experimental data published in BigSolDB 2.1.

c1ccc2c(c1)Cc1ccccc1-2
solubility (mole fraction)
Conditions	278.15 K	283.15 K	288.15 K	293.15 K	298.15 K	303.15 K	308.15 K	313.15 K	318.15 K
in THF	0.12	0.13	0.148	0.163	0.182	0.2	0.225	0.248	0.273
in acetone	0.0353	0.0406	0.0482	0.0567	0.0658	0.0779	0.0931	0.109	0.126
in acetonitrile	0.0101	0.0113	0.0138	0.0161	0.0197	0.0235	0.0288	0.0345	0.0406
in ethanol	0.0038	0.00448	0.0055	0.00669	0.00816	0.00937	0.0111	0.0132	0.0154
in ethyl acetate	0.046	0.0542	0.062	0.0737	0.0866	0.102	0.119	0.139	0.163
in ethyl formate	0.0346	0.0395	0.046	0.0552	0.0654	0.0781	0.0933	0.112	0.133
in isobutyl acetate	0.0546	0.0611	0.0718	0.0816	0.0914	0.104	0.124	0.142	0.162
in isopropanol	0.00401	0.0045	0.00559	0.00675	0.00808	0.00943	0.0121	0.0149	0.0177
in isopropyl acetate	0.044	0.0504	0.058	0.0695	0.0812	0.0936	0.11	0.127	0.148
in methanol	0.00199	0.00235	0.00275	0.00313	0.00395	0.00452	0.00528	0.00645	0.00709
in methyl acetate	0.0374	0.0422	0.0498	0.0607	0.0712	0.0856	0.1	0.12	0.142
in n-butyl acetate	0.0693	0.0756	0.0874	0.0991	0.111	0.121	0.146	0.167	0.19
in n-propanol	0.0052	0.00612	0.0072	0.009	0.0112	0.013	0.0155	0.0186	0.0216
in n-propyl acetate	0.0596	0.0671	0.0763	0.0862	0.0969	0.108	0.134	0.153	0.176
